# Toxic doses and inconclusive results are not listed.
# Test system: L1210 leukemia ip in BDF1 mice, survival T/C
# Test: NCI In Vivo Anticancer Drug Screen. Data for tumor model L1210 Leukemia (intraperitoneal) in B6D2F1 (BDF1) mice
# Conditions: higher = longer survival
# How it was run: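 Tumor was transplanted into mice, which were then dosed with test compound or vehicle alone. Survival was recorded for each group, and the treated figure was expressed relative to the control figure.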
# [1] = endpoint: mean survival time, dose: 50.0 mg/kg/injection, schedule: Q04DX003 (ip), vehicle: saline with Tween-80
# [2] = endpoint: mean survival time, dose: 100.0 mg/kg/injection, schedule: Q04DX003 (ip), vehicle: saline with Tween-80
# [3] = endpoint: mean survival time, dose: 100.0 mg/kg/injection, schedule: Q04DX003 (ip), vehicle: saline
# [4] = endpoint: mean survival time, dose: 100.0 mg/kg/injection, schedule: Q04DX002 (ip), vehicle: Klucel (hydroxypropylcellulose) (HPC)
# [5] = endpoint: mean survival time, dose: 200.0 mg/kg/injection, schedule: Q04DX002 (ip), vehicle: Klucel (hydroxypropylcellulose) (HPC)
# [6] = endpoint: mean survival time, dose: 400.0 mg/kg/injection, schedule: Q04DX002 (ip), vehicle: Klucel (hydroxypropylcellulose) (HPC)
# [7] = endpoint: mean survival time, dose: 200.0 mg/kg/injection, schedule: Q04DX003 (ip), vehicle: saline with Tween-80
# [8] = endpoint: mean survival time, dose: 100.0 mg/kg/injection, schedule: Q01DX009 (ip), vehicle: saline with Tween-80
# [9] = endpoint: mean survival time, dose: 200.0 mg/kg/injection, schedule: Q01DX009 (ip), vehicle: saline with Tween-80
# [10] = endpoint: mean survival time, dose: 200.0 mg/kg/injection, schedule: Q04DX003 (ip), vehicle: saline
# [11] = endpoint: mean survival time, dose: 400.0 mg/kg/injection, schedule: Q04DX003 (ip), vehicle: saline with Tween-80
# [12] = endpoint: mean survival time, dose: 400.0 mg/kg/injection, schedule: Q01DX009 (ip), vehicle: saline with Tween-80
compound,measurement,setting,value
C/C=C/C(=O)OC(=O)/C=C/C,T/C,"endpoint: mean survival time, dose: 25.0 mg/kg/injection, schedule: Q04DX003 (ip), vehicle: saline with Tween-80",94 % of control
same,T/C,[1],98 % of control
same,T/C,[2],113 % of control
same,T/C,[3],114 % of control
N#CC1c2ccccc2-c2ccccc2N1C(=O)c1ccccc1 (stereo not drawn),T/C,[4],93 % of control
same,T/C,[5],96 % of control
same,T/C,[6],107 % of control
O=C1C(=O)c2ccccc2-c2ccccc21.O=C1C(=O)c2ccccc2-c2ccccc21.[Hg],T/C,"endpoint: mean survival time, dose: 6.25 mg/kg/injection, schedule: Q04DX003 (ip), vehicle: saline with Tween-80",95 % of control
O=C(/C=C/c1ccc(O)cc1)c1ccc(Cl)cc1,T/C,"endpoint: mean survival time, dose: 100.0 mg/kg/injection, schedule: Q01DX001 (ip), vehicle: saline",98 % of control
same,T/C,"endpoint: mean survival time, dose: 200.0 mg/kg/injection, schedule: Q01DX001 (ip), vehicle: saline",87 % of control
same,T/C,"endpoint: mean survival time, dose: 400.0 mg/kg/injection, schedule: Q01DX001 (ip), vehicle: saline",90 % of control
Cn1c(C[N+](C)(C)C)cc2ccccc21,T/C,[2],104 % of control
same,T/C,[7],96 % of control
O=C(Nc1cccc(C2=NCCCN2)c1)c1ccc(C(=O)Nc2cccc(C3=NCCCN3)c2)c([N+](=O)[O-])c1,T/C,"endpoint: mean survival time, dose: 0.05 mg/kg/injection, schedule: Q01DX015 (ip), vehicle: water",98 % of control
same,T/C,"endpoint: mean survival time, dose: 0.09 mg/kg/injection, schedule: Q01DX015 (ip), vehicle: water",96 % of control
same,T/C,"endpoint: mean survival time, dose: 0.19 mg/kg/injection, schedule: Q01DX015 (ip), vehicle: water",98 % of control
same,T/C,"endpoint: mean survival time, dose: 0.38 mg/kg/injection, schedule: Q01DX015 (ip), vehicle: water",101 % of control
same,T/C,"endpoint: mean survival time, dose: 0.5 mg/kg/injection, schedule: Q01DX015 (ip), vehicle: water",97 % of control
Cc1ccc(NC(=O)c2cc([N+](=O)[O-])cc([N+](=O)[O-])c2)c(C)c1,T/C,[4],94 % of control
same,T/C,[5],94 % of control
same,T/C,[6],91 % of control
CCCCCC/C=N/NC(=O)c1ccc[n+](C)c1,T/C,"endpoint: mean survival time, dose: 50.0 mg/kg/injection, schedule: Q01DX009 (ip), vehicle: saline with Tween-80",93 % of control
same,T/C,[8],100 % of control
same,T/C,[9],100 % of control
NC(N)=Nc1ccc(C(=O)Oc2ccc([N+](=O)[O-])cc2Cl)cc1,T/C,"endpoint: mean survival time, dose: 25.0 mg/kg/injection, schedule: Q01DX009 (ip), vehicle: saline",94 % of control
same,T/C,"endpoint: mean survival time, dose: 50.0 mg/kg/injection, schedule: Q01DX009 (ip), vehicle: saline",97 % of control
same,T/C,"endpoint: mean survival time, dose: 100.0 mg/kg/injection, schedule: Q01DX009 (ip), vehicle: saline",87 % of control
same,T/C,[3],96 % of control
same,T/C,[10],94 % of control
Cc1ccc(C(CC(=O)O)CC(=O)O)c(O)c1,T/C,"endpoint: mean survival time, dose: 100.0 mg/kg/injection, schedule: Q01DX009 (ip), vehicle: gum acacia",96 % of control
same,T/C,"endpoint: mean survival time, dose: 100.0 mg/kg/injection, schedule: Q04DX003 (ip), vehicle: gum acacia",95 % of control
same,T/C,"endpoint: mean survival time, dose: 200.0 mg/kg/injection, schedule: Q01DX009 (ip), vehicle: gum acacia",93 % of control
same,T/C,"endpoint: mean survival time, dose: 200.0 mg/kg/injection, schedule: Q04DX003 (ip), vehicle: gum acacia",93 % of control
same,T/C,"endpoint: mean survival time, dose: 400.0 mg/kg/injection, schedule: Q01DX009 (ip), vehicle: gum acacia",88 % of control
same,T/C,"endpoint: mean survival time, dose: 400.0 mg/kg/injection, schedule: Q04DX003 (ip), vehicle: gum acacia",90 % of control
O=C1C(Br)=C(Br)C(=O)C1(Br)Br,T/C,[2],87 % of control
same,T/C,[7],96 % of control
same,T/C,[11],94 % of control
[CH3][Sb]1([Br])[CH2]CC[CH2]1,T/C,[3],93 % of control
same,T/C,[10],101 % of control
CCCCn1cc(COCC)c(=O)[nH]c1=O,T/C,"endpoint: mean survival time, dose: 50.0 mg/kg/injection, schedule: Q04DX002 (ip), vehicle: Klucel (hydroxypropylcellulose) (HPC)",98 % of control
same,T/C,[4],102 % of control
same,T/C,[5],98 % of control
CCOP(=O)(OCC)C1=C(P(=O)(OCC)OCC)C(F)(F)C1(F)F,T/C,"endpoint: mean survival time, dose: 75.0 mg/kg/injection, schedule: Q01DX001 (ip), vehicle: other",102 % of control
CC1CC(C)(C)C(C[NH-])C1[NH-].[Cl][Pt+2][Cl] (stereo not drawn),T/C,"endpoint: median survival time, dose: 7.5 mg/kg/injection, schedule: Q01DX009 (ip), vehicle: saline",189 % of control
same,T/C,"endpoint: median survival time, dose: 15.0 mg/kg/injection, schedule: Q01DX001 (ip), vehicle: saline",173 % of control
same,T/C,"endpoint: median survival time, dose: 15.0 mg/kg/injection, schedule: Q01DX009 (ip), vehicle: saline",205 % of control
same,T/C,"endpoint: median survival time, dose: 30.0 mg/kg/injection, schedule: Q01DX001 (ip), vehicle: saline",189 % of control
same,T/C,"endpoint: median survival time, dose: 30.0 mg/kg/injection, schedule: Q01DX009 (ip), vehicle: saline",105 % of control
same,T/C,"endpoint: median survival time, dose: 60.0 mg/kg/injection, schedule: Q01DX001 (ip), vehicle: saline",154 % of control
same,T/C,"endpoint: median survival time, dose: 60.0 mg/kg/injection, schedule: Q01DX009 (ip), vehicle: saline",87 % of control
same,T/C,"endpoint: median survival time, dose: 120.0 mg/kg/injection, schedule: Q01DX001 (ip), vehicle: saline",209 % of control
CCCCC(=O)OCC1OC(n2cnc3c(=S)nc[nH]c32)C(OC(=O)CCCC)C1OC(=O)CCCC (stereo not drawn),T/C,"endpoint: mean survival time, dose: 50.0 mg/kg/injection, schedule: Q01DX015 (ip), vehicle: carboxymethylcellulose (CMC)",151 % of control
same,T/C,"endpoint: mean survival time, dose: 50.0 mg/kg/injection, schedule: Q01DX Z (ip), vehicle: carboxymethylcellulose (CMC)",117 % of control
same,T/C,"endpoint: mean survival time, dose: 100.0 mg/kg/injection, schedule: Q01DX015 (ip), vehicle: carboxymethylcellulose (CMC)",172 % of control
same,T/C,"endpoint: mean survival time, dose: 200.0 mg/kg/injection, schedule: Q01DX Z (ip), vehicle: carboxymethylcellulose (CMC)",161 % of control
same,T/C,"endpoint: mean survival time, dose: 400.0 mg/kg/injection, schedule: Q01DX Z (ip), vehicle: carboxymethylcellulose (CMC)",87 % of control
CS(=O)(=O)OCCBr,T/C,"endpoint: mean survival time, dose: 12.5 mg/kg/injection, schedule: Q04DX003 (ip), vehicle: saline",88 % of control
same,T/C,"endpoint: mean survival time, dose: 25.0 mg/kg/injection, schedule: Q04DX003 (ip), vehicle: saline",90 % of control
same,T/C,"endpoint: mean survival time, dose: 50.0 mg/kg/injection, schedule: Q04DX003 (ip), vehicle: saline",87 % of control
same,T/C,"endpoint: mean survival time, dose: 100.0 mg/kg/injection, schedule: Q01DX001 (ip), vehicle: carboxymethylcellulose (CMC)",103 % of control
CN(C)P(=O)(Oc1c(Cl)c(Cl)c(Cl)c(Cl)c1Cl)Oc1c(Cl)c(Cl)c(Cl)c(Cl)c1Cl,T/C,"endpoint: mean survival time, dose: 100.0 mg/kg/injection, schedule: Q04DX002 (ip), vehicle: saline with Tween-80",107 % of control
same,T/C,"endpoint: mean survival time, dose: 200.0 mg/kg/injection, schedule: Q04DX002 (ip), vehicle: saline with Tween-80",110 % of control
same,T/C,"endpoint: mean survival time, dose: 400.0 mg/kg/injection, schedule: Q04DX002 (ip), vehicle: saline with Tween-80",93 % of control
Cc1ccc(NC(=O)C(Br)C(Br)C(=O)O)cc1Cl (stereo not drawn),T/C,[8],107 % of control
same,T/C,[9],97 % of control
CCO/C=C1\SC(=S)N(c2ccccc2OC)C1=O,T/C,[8],102 % of control
same,T/C,[9],104 % of control
same,T/C,[12],106 % of control
COc1ccc2c(c1)c1c(C)c3cnccc3c(C)c1n2CCCN1C(=O)c2ccccc2C1=O,T/C,[1],94 % of control
same,T/C,[8],96 % of control
same,T/C,[2],92 % of control
same,T/C,[9],101 % of control
same,T/C,[7],93 % of control
same,T/C,"endpoint: mean survival time, dose: 400.0 mg/kg/injection, schedule: Q01DX001 (oral), vehicle: saline with Tween-80",110 % of control
same,T/C,[12],101 % of control
same,T/C,[11],94 % of control
same,T/C,"endpoint: mean survival time, dose: 800.0 mg/kg/injection, schedule: Q01DX001 (oral), vehicle: saline with Tween-80",108 % of control
same,T/C,"endpoint: mean survival time, dose: 1600.0 mg/kg/injection, schedule: Q01DX001 (oral), vehicle: saline with Tween-80",112 % of control
O=C1Cc2ccccc2C(C(=O)O)O1 (stereo not drawn),T/C,"endpoint: mean survival time, dose: 75.0 mg/kg/injection, schedule: Q01DX001 (ip), vehicle: saline",107 % of control
same,T/C,"endpoint: mean survival time, dose: 150.0 mg/kg/injection, schedule: Q01DX001 (ip), vehicle: saline",101 % of control
same,T/C,"endpoint: mean survival time, dose: 300.0 mg/kg/injection, schedule: Q01DX001 (ip), vehicle: saline",107 % of control
COc1cccc(CN)c1,T/C,[2],99 % of control
same,T/C,[7],100 % of control
same,T/C,[11],94 % of control
c1ccc([As](c2ccccc2)c2ccccc2)cc1,T/C,"endpoint: mean survival time, dose: 50.0 mg/kg/injection, schedule: Q01DX001 (ip), vehicle: other",103 % of control
same,T/C,"endpoint: mean survival time, dose: 100.0 mg/kg/injection, schedule: Q01DX001 (ip), vehicle: other",103 % of control
same,T/C,"endpoint: mean survival time, dose: 200.0 mg/kg/injection, schedule: Q01DX001 (ip), vehicle: other",97 % of control
same,T/C,"endpoint: mean survival time, dose: 400.0 mg/kg/injection, schedule: Q01DX001 (ip), vehicle: other",103 % of control
ClCC1=NC2C(Cl)C(Cl)C(Cl)C(Cl)C2N1 (stereo not drawn),T/C,[4],111 % of control
same,T/C,[5],100 % of control
same,T/C,[6],100 % of control
c1ccc(-c2nnc3oc(-c4ccco4)nn23)cc1,T/C,[8],100 % of control
same,T/C,[2],96 % of control
same,T/C,[9],101 % of control
same,T/C,[7],102 % of control
same,T/C,[12],101 % of control
same,T/C,[11],94 % of control

# From PubChem BioAssay AID248 (DTP/NCI, 2004)
